Where “and” joins values, the source holds several entries; their conditions need not be identical. Equal entries are not always repeated.
Test: Dog PK study #3 (Compound A PO once daily 5 days, 5/10/20 mg/kg; PK, body weight, hematology)
Assay type: in vivo, beagle dogs
Set-up: Plasma Concentration: unit not given here
Conditions: for Neutrophils: range 1.80-10.83; for White Blood Cells: range 4.81-15.67; for Platelets: range 127-393; for Accumulative Index of AUC0-last (Day 5/Day 1) / Accumulative Index of Cmax (Day 5/Day 1): PO
Procedure: For the third dog pharmacokinetic study, three solutions of different concentrations of Compound A were prepared in 5% DMSO/15% PEG-400/80% (10% VE-TPGS) as outlined in Table 2E. The Compound A solutions were administered to animals orally (PO) once daily over a five-day period. Body weight was recorded prior to dosing, and detailed clinical observations were made prior to dosing and throughout the study, as needed.
Animals were divided into Day 1 and Day 5 sample collection groups, with animals in the Day 1 collection group having blood samples taken prior to dosing and at 0.25, 0.5, 1, 2, 4, 8, and 24 hours after dosing on day 1. Animals in the Day 5 collection group having blood samples taken prior to dosing and at 0.25, 0.5, 1, 2, 4, 8, and 24 hours after dosing on day 5. Study groups are outlined in Table 3D.
Blood samples (~0.3 mL) were collected on day according to the following schedule (0.25, 0.5, 1, 2, 4, 8, and 24 h) after day 5 administration of Compound A by venipuncture of peripheral veins except for the dosing vein, and EDTA-K2 was used as anticoagulant. Within 30 minutes of collection, the samples were centrifuged at approximately 2000 times g-force for 10 minutes at 4° C. to obtain blood plasma. The plasma samples were immediately divided into two aliquots (~75 μL each), transferred to a cryogenic vial, and stored in a freezer at −75±15° C. prior to analysis.
The concentration of Compound A in the blood plasma was determined through LC-MS as previously described. Briefly, the experiments were conducted on a DMPK-LCMS-14-SMBA Triple Quad 6500 Plus instrument with an ACQUITY UPLC BEH C18 1.7 μm (50×2.1 mm) column. The matrix was male beagle dog plasma potassium (K2) EDTA A gradient of 95% water (0.1% formic acid and 2 mM HCOONH4)/95% acetonitrile (0.1% formic acid and 2 mM HCOONH4) was used as the mobile phase. The sample flow rate was 0.6 mL/min.
The samples were then vortex-mixed for 10 minutes at 800 rpm and centrifuged for 15 minutes at 3220×g at 4° C. 50 μL aliquots of supernatant were transferred to a clean 96-well plate and centrifuged for 5 minutes at 3220×g at 4° C. Samples were then injected into the LC/MS/MS system for quantitative analysis.
The gathered data were used for pharmacokinetic calculations using T1/2, CO, AUClast, AUCinf, MRTinf, Cl, Vss, and Number of Points for Regression as parameters.
The cell composition (hematology) of blood samples was analyzed at day 5. Analyses identified the total number of white blood cells, neutrophils, lymphocytes, monocytes, eosinophils, basophils, and platelets in collected samples.

[1] = Day 5, 10 mg/kg dose PO, individual animals
[2] = Day 5, 20 mg/kg dose PO, individual animals
[3] = Day 5, Group 1, individual animals
[4] = Day 5, Group 2, individual animals
[5] = Day 5, Group 3, individual animals

## Cn1cc(-c2ccccc2)c(-c2cn(C)c(=O)c3[nH]c(-c4cnn(C(F)(F)F)c4)cc23)cc1=O [Compound A, 6-methyl-4-(1-methyl-2-oxo-5-phenyl-1,2-dihydropyridin-4-yl)-2-(1-(trifluoromethyl)-1H-pyrazol-4-yl)-1,6-dihydro-7H-pyrrolo[2,3-c]pyridin-7-one]
Day 5, 5 mg/kg/day (mean)
  Neutrophils: 7.08 10^3/μL
  White Blood Cells: 10.59 103/μL
  Platelets: 224.0 10^3/μL
Day 5, 10 mg/kg dose PO, time 1, individual animals
  Plasma Concentration: 1610 and 2220
Day 5, 10 mg/kg dose PO, time 1, mean
  Plasma Concentration: 1915
Day 5, 10 mg/kg dose PO, time 2, individual animals
  Plasma Concentration: 1740 and 2780
Day 5, 10 mg/kg dose PO, time 2, mean
  Plasma Concentration: 2260
Day 5, 10 mg/kg dose PO, time 4, individual animals
  Plasma Concentration: 1460 and 2310
Day 5, 10 mg/kg dose PO, time 4, mean
  Plasma Concentration: 1885
Day 5, 10 mg/kg dose PO, time 8, individual animals
  Plasma Concentration: 1190 and 1940
Day 5, 10 mg/kg dose PO, time 8, mean
  Plasma Concentration: 1565
[1]
  AUC0-last: 36.083 µg·h/mL
  AUC(0-inf): 45.289 µg·h/mL
  AUCExtra: 10.6% and 20.3%
  AUMCExtra: 32.6% and 51.3%
  Cl_F: 7.25 mL/min/kg and 3.68 mL/min/kg
  Cmax: 2780 ng/mL
  MRT0-inf: 15.4 h
  MRT0-last: 9.39 h
  Tlast: 24.0 h
  T½: 10.3 h
  Vz_F: 4.58 L/kg and 3.27 L/kg
Day 5, 10 mg/kg dose PO, mean
  AUC0-last: 28.307 µg·h/mL
  AUCExtra: 15.5%
  AUMCExtra: 42.0%
  Cl_F: 5.47 mL/min/kg
  Tlast: 24.0 h
  Vz_F: 3.92 L/kg
Day 5, 10 mg/kg/day (mean), range 0.00-0.19
  Basophils: 0.07 10^3/μL
Day 5, 10 mg/kg/day (mean), range 0.00-1.24
  Eosinophils: 0.40 10^3/μL
Day 5, 10 mg/kg/day (mean), range 0.11-1.08
  Monocytes: 0.48 10^3/μL
Day 5, 10 mg/kg/day (mean), range 1.42-3.76
  Lymphocytes: 3.31 10^3/μL
Day 5, 10 mg/kg/day (mean)
  Neutrophils: 6.59 10^3/μL
  White Blood Cells: 10.86 103/μL
  Platelets: 273.0 10^3/μL
Day 5, 20 mg/kg dose PO, time 1, individual animals
  Plasma Concentration: 3150 and 2130
Day 5, 20 mg/kg dose PO, time 1, mean
  Plasma Concentration: 2640
Day 5, 20 mg/kg dose PO, time 2, individual animals
  Plasma Concentration: 3510 and 2220
Day 5, 20 mg/kg dose PO, time 2, mean
  Plasma Concentration: 2865
Day 5, 20 mg/kg dose PO, time 4, individual animals
  Plasma Concentration: 3160 and 2040
Day 5, 20 mg/kg dose PO, time 4, mean
  Plasma Concentration: 2600
Day 5, 20 mg/kg dose PO, time 8, individual animals
  Plasma Concentration: 2430 and 2170
Day 5, 20 mg/kg dose PO, time 8, mean
  Plasma Concentration: 2300
[2]
  AUC0-last: 43.537 µg·h/mL and 16.801 µg·h/mL
  AUC(0-inf): 49.399 µg·h/mL and 2087.5 µg·h/mL
  AUCExtra: 11.9% and 99.2%
  AUMCExtra: 35.5% and 100%
  Cl_F: 6.75 mL/min/kg and 0.160 mL/min/kg
  Cmax: 2220 ng/mL
  MRT0-inf: 11.7 h and 955 h
  MRT0-last: 8.57 h and 4.03 h
  Tlast: 24.0 h and 8.00 h
  T½: 7.64 h
  Vz_F: 4.46 L/kg and 9.29 L/kg
Day 5, 20 mg/kg dose PO, mean
  AUC0-last: 30.169 µg·h/mL
  AUCExtra: 55.6%
  AUMCExtra: 67.8%
  Cl_F: 3.45 mL/min/kg
  Vz_F: 6.87 L/kg
[3]
  Animal body weight: 8.22 kg and 9.18 kg
  Clinical Observation: None
Day 5, Group 1, mean
  Animal Body Weight, Mean: 8.70 kg
[4]
  Animal body weight: 9.31 kg and 8.43 kg
  Clinical Observation: None
Day 5, Group 2, mean
  Animal Body Weight, Mean: 8.87 kg
[5]
  Animal body weight: 8.88 kg and 8.11 kg
  Clinical Observation: None
Day 5, Group 3, mean
  Animal Body Weight, Mean: 8.50 kg
Dose level 5.00 mg/kg
  Accumulative Index of AUC0-last (Day 5/Day 1): 1.53
  Accumulative Index of Cmax (Day 5/Day 1): 1.57
Dose level 10.0 mg/kg
  Accumulative Index of AUC0-last (Day 5/Day 1): 1.62
  Accumulative Index of Cmax (Day 5/Day 1): 1.31
Dose level 20.0 mg/kg
  Accumulative Index of AUC0-last (Day 5/Day 1): 0.445
  Accumulative Index of Cmax (Day 5/Day 1): 0.555
All doses administered
  time plasma concentration remained above the free EC50 BD2: 24 h
Day 5
  white blood cell fraction parameters: within range
male, beagle, dog, plasma, po, 5 mg/kg, Day 1, 5 mg/kg dose PO, individual animals
  AUC(0-t): 11.6 µg·h/mL
